Experimental data reported in patent US4069331A, “N-(p-fluorobenzoyl-n-propyl)-4-piperidylamides and salts thereof” (Boehringer Ingelheim GmbH, priority 1974, dated 1978).

Legend:
[1] = inhibition of exploration (Planche-a-Trous situation); format: in vivo, Mouse (albino, NMRI); conditions: mouse, oral, suspension in olive oil or gum arabic; 50% decrease of exploration
Procedure: (§1) Those compounds of the formula I wherein R is methyl, ethyl and isopropyl and the structurally most closely related compound disclosed in the prior art, namely 1-[4-(4-fluorophenyl)-4-oxobutyl]-4-benzamidopiperidine disclosed in British patent specification No. 1,345,872, were tested for adrenaline-antagonistic activity, inhibition of locomotion, inhibition of exploration and toxicity by standard pharmacological test methods, and in each case the median effective dose (ED50) or the median lethal dose (LD50), respectively, were calculated graphically from dose-activity graphs. Albino mice (NMRI) having a body weight of 20-25 gm were used as the test animals, 10 animals per dose and untreated controls. The test compounds were administered orally in suspension in olive oil or gum arabic.
2. The inhibiting effect on exploration was determined by the method of J.R. Borssin et al, Therapie 19, 571 (1964). The ED50 is the dose which produces a 50% decrease of exploration in the Planche-a-Trous situation.

[2] = toxicity (24 hours observation); conditions: in vivo, mouse, oral, suspension in olive oil or gum arabic
Procedure: as §1
4. The toxicity was determined over an observation period of 24 hours. The LD50 was calculated by the method J.T. Litchfield and F. Wilcoxon, J. Pharm. Exp. Ther. 96, 99 (1949).

adrenaline (epinephrine) = assay: adrenaline-antagonistic activity (protection against a lethal dose of adrenaline); format: in vivo, Mouse (albino, NMRI); conditions: mouse, oral, suspension in olive oil or gum arabic; 50% protection against lethal dose of adrenaline; read-out: Adrenaline-antagonism (ED50)
Procedure: as §1
1. The adrenaline-antagonistic activity was determined by the method of P.A.J. Janssen et al, Arzneimittelforschung (Drug Research) 13, 203 (1963). […] The ED50 is the dose which produces a 50% protection against a lethal dose of adrenaline (epinephrine).

[3] = inhibition of locomotion (open field test); format: in vivo, Mouse (albino, NMRI); conditions: mouse, oral, suspension in olive oil or gum arabic; 50% attenuation of locomotion
Procedure: as §1
3. The inhibiting effect on locomotion was determined by the method of P.A.J. Janssen et al, Psychopharmacologia 1, 389 (1960). The ED50 is the dose which produces a 50% attenuation of locomotion in the open field test.

Row | Compound | ED50 [1] [mg/kg] | LD50 at 24 h [2] [mg/kg] | ED50 (adrenaline (epinephrine)) [mg/kg] | ED50 [3] [mg/kg]
1 | O=C(CCCN1CCC(NC(=O)c2ccccc2)CC1)c1ccc(F)cc1 [C6 H5, 1-[4-(4-fluorophenyl)-4-oxobutyl]-4-benzamidopiperidine, reference compound] | 45 | 300 | 3.3 | 135
2 | CC(=O)NC1CCN(CCCC(=O)c2ccc(F)cc2)CC1 [Example 1] | 8 | 1050 | 0.06 | 4
3 | CCC(=O)NC1CCN(CCCC(=O)c2ccc(F)cc2)CC1 [Example 2, N-[3'-(p-fluoro-benzoyl)-n-propyl]-4-(propionyl-amino) -piperidine] | 4.4 | 1160 | 0.1 | 6
4 | CC(C)C(=O)NC1CCN(CCCC(=O)c2ccc(F)cc2)CC1 [Example 4, N-[3'-(p-fluoro-benzoyl)-n-propyl]-4-(isobutyryl-amino) -piperidine] | 9 | 1850 | 0.58 | 10
